Assay results reported in ChEMBL document CHEMBL3885881, “DrugMatrix”.

Species: Rattus norvegicus
Test: DrugMatrix - Regimen: Daily Repeat
Type: toxicity, organism-based, Sprague-Dawley
Design: regimen Daily Repeat, gender Male, age 6-8 weeks
Conditions: in vivo, po, route oral GAVAGE, […]; for ABSOLUTE BASOPHIL / ABSOLUTE EOSINOPHIL / ABSOLUTE LYMPHOCYTE / ABSOLUTE MONOCYTE / ABSOLUTE SEGMENTED NEUTROPHIL / BASOPHIL / EOSINOPHIL / ERYTHROCYTE COUNT / HEMATOCRIT / HEMOGLOBIN / LEUKOCYTE COUNT / LYMPHOCYTE / MEAN CORPUSCULAR HEMOGLOBIN / MEAN CORPUSCULAR HEMOGLOBIN CONCENTRATION / MEAN CORPUSCULAR VOLUME / MONOCYTE / NEUTROPHIL / NUCLEATED RED BLOOD CELLS / PLATELET COUNT: tissue Blood; for ALANINE AMINOTRANSFERASE / ALBUMIN / ALKALINE PHOSPHATASE / ASPARTATE AMINOTRANSFERASE / BLOOD UREA NITROGEN / CARBON DIOXIDE / CHLORIDE / CHOLESTEROL / CREATINE PHOSPHOKINASE / CREATININE / GLUCOSE / LACTATE DEHYDROGENASE / LIPASE / PHOSPHORUS / POTASSIUM / SODIUM / TOTAL BILIRUBIN / TOTAL PROTEIN / URIC ACID: tissue Plasma
[1] = 50 mg/kg, 120 h, dose level Low, time 5 day
[2] = 714 mg/kg, 72 h, dose level High, time 3 day
[3] = 714 mg/kg, 120 h, dose level High, time 5 day

COC(=O)Nc1nc2ccc(C(=O)c3ccccc3)cc2[nH]1 [MEBENDAZOLE]
ABSOLUTE BASOPHIL [1]: 0 CELLS/uL
ABSOLUTE EOSINOPHIL [1]: 0 CELLS/uL
ABSOLUTE LYMPHOCYTE [1]: 6435.67 CELLS/uL
ABSOLUTE MONOCYTE [1]: 130 CELLS/uL
ABSOLUTE SEGMENTED NEUTROPHIL [1]: 501 CELLS/uL
BASOPHIL [1]: 0%
EOSINOPHIL [1]: 0%
ERYTHROCYTE COUNT [1]: 5.5 x10E6/uL
HEMATOCRIT [1]: 34.07%
HEMOGLOBIN [1]: 13.2 G/DL
LEUKOCYTE COUNT [1]: 7.07 x10E3/uL
LYMPHOCYTE [1]: 91.33%
MEAN CORPUSCULAR HEMOGLOBIN [1]: 23.93 pg
MEAN CORPUSCULAR HEMOGLOBIN CONCENTRATION [1]: 38.77 G/DL
MEAN CORPUSCULAR VOLUME [1]: 61.9 fL
MONOCYTE [1]: 1.67%
NEUTROPHIL [1]: 7%
NUCLEATED RED BLOOD CELLS [1]: 0 /100WBC
PLATELET COUNT [1]: 727.67 x10E3/uL
ALANINE AMINOTRANSFERASE [1]: 57.67 u/L
ALBUMIN [1]: 4.23 G/DL
ALKALINE PHOSPHATASE [1]: 399 u/L
ASPARTATE AMINOTRANSFERASE [1]: 84.33 u/L
BLOOD UREA NITROGEN [1]: 13 mg/dL
CARBON DIOXIDE [1]: 30.67 mmol/L
CHLORIDE [1]: 101.67 MEQ/L
CHOLESTEROL [1]: 64.67 mg/dL
CREATINE PHOSPHOKINASE [1]: 244 u/L
CREATININE [1]: 0.17 mg/dL
GLUCOSE [1]: 149 mg/dL
LACTATE DEHYDROGENASE [1]: 129.33 u/L
LIPASE [1]: 9.33 u/L
PHOSPHORUS [1]: 9.77 mg/dL
POTASSIUM [1]: 5.24 MEQ/L
SODIUM [1]: 144.5 MEQ/L
TOTAL BILIRUBIN [1]: 0.17 mg/dL
TOTAL PROTEIN [1]: 6.13 G/DL
URIC ACID [1]: 0.83 mg/dL
ABSOLUTE BASOPHIL [2]: 0 CELLS/uL
ABSOLUTE EOSINOPHIL [2]: 0 CELLS/uL
ABSOLUTE LYMPHOCYTE [2]: 11722 CELLS/uL
ABSOLUTE MONOCYTE [2]: 64.67 CELLS/uL
ABSOLUTE SEGMENTED NEUTROPHIL [2]: 713.33 CELLS/uL
BASOPHIL [2]: 0%
EOSINOPHIL [2]: 0%
ERYTHROCYTE COUNT [2]: 5.73 x10E6/uL
HEMATOCRIT [2]: 36.47%
HEMOGLOBIN [2]: 14.03 G/DL
LEUKOCYTE COUNT [2]: 12.5 x10E3/uL
LYMPHOCYTE [2]: 93%
MEAN CORPUSCULAR HEMOGLOBIN [2]: 24.53 pg
MEAN CORPUSCULAR HEMOGLOBIN CONCENTRATION [2]: 38.5 G/DL
MEAN CORPUSCULAR VOLUME [2]: 63.63 fL
MONOCYTE [2]: 0.67%
NEUTROPHIL [2]: 6.33%
NUCLEATED RED BLOOD CELLS [2]: 0 /100WBC
PLATELET COUNT [2]: 1226.67 x10E3/uL
ALANINE AMINOTRANSFERASE [2]: 73 u/L
ALBUMIN [2]: 4.17 G/DL
ALKALINE PHOSPHATASE [2]: 458.33 u/L
ASPARTATE AMINOTRANSFERASE [2]: 86.67 u/L
BLOOD UREA NITROGEN [2]: 12.33 mg/dL
CARBON DIOXIDE [2]: 34.33 mmol/L
CHLORIDE [2]: 99 MEQ/L
CHOLESTEROL [2]: 68 mg/dL
CREATINE PHOSPHOKINASE [2]: 464 u/L
CREATININE [2]: 0.15 mg/dL
GLUCOSE [2]: 137.67 mg/dL
LACTATE DEHYDROGENASE [2]: 159.67 u/L
LIPASE [2]: 10 u/L
PHOSPHORUS [2]: 11.13 mg/dL
POTASSIUM [2]: 6.13 MEQ/L
SODIUM [2]: 144.4 MEQ/L
TOTAL BILIRUBIN [2]: 0.2 mg/dL
TOTAL PROTEIN [2]: 6.07 G/DL
URIC ACID [2]: 0.6 mg/dL
ABSOLUTE BASOPHIL [3]: 0 CELLS/uL
ABSOLUTE EOSINOPHIL [3]: 0 CELLS/uL
ABSOLUTE LYMPHOCYTE [3]: 8770.67 CELLS/uL
ABSOLUTE MONOCYTE [3]: 141.33 CELLS/uL
ABSOLUTE SEGMENTED NEUTROPHIL [3]: 488 CELLS/uL
BASOPHIL [3]: 0%
EOSINOPHIL [3]: 0%
ERYTHROCYTE COUNT [3]: 5.57 x10E6/uL
HEMATOCRIT [3]: 35.9%
HEMOGLOBIN [3]: 13.67 G/DL
LEUKOCYTE COUNT [3]: 9.4 x10E3/uL
LYMPHOCYTE [3]: 93%
MEAN CORPUSCULAR HEMOGLOBIN [3]: 24.57 pg
MEAN CORPUSCULAR HEMOGLOBIN CONCENTRATION [3]: 38.1 G/DL
MEAN CORPUSCULAR VOLUME [3]: 64.5 fL
MONOCYTE [3]: 1.67%
NEUTROPHIL [3]: 5.33%
NUCLEATED RED BLOOD CELLS [3]: 0.33 /100WBC
PLATELET COUNT [3]: 1199 x10E3/uL
ALANINE AMINOTRANSFERASE [3]: 60.67 u/L
ALBUMIN [3]: 4.1 G/DL
ALKALINE PHOSPHATASE [3]: 481.33 u/L
ASPARTATE AMINOTRANSFERASE [3]: 90.67 u/L
BLOOD UREA NITROGEN [3]: 14 mg/dL
CARBON DIOXIDE [3]: 32.67 mmol/L
CHLORIDE [3]: 99.67 MEQ/L
CHOLESTEROL [3]: 65 mg/dL
CREATINE PHOSPHOKINASE [3]: 401 u/L
CREATININE [3]: 0.21 mg/dL
GLUCOSE [3]: 145.33 mg/dL
LACTATE DEHYDROGENASE [3]: 142.67 u/L
LIPASE [3]: 11.67 u/L
PHOSPHORUS [3]: 10.2 mg/dL
POTASSIUM [3]: 5.58 MEQ/L
SODIUM [3]: 146.1 MEQ/L
TOTAL BILIRUBIN [3]: 0.2 mg/dL
TOTAL PROTEIN [3]: 5.97 G/DL
URIC ACID [3]: 0.5 mg/dL
